Source: patent publication US12427192B2, “Water soluble adjuvant and composition containing same” (Sumitomo Pharma Co., Ltd., priority 2019, dated 2025)

Assays:
[1] = tested on: HLA-A*02:01 transgenic mouse; test: Test 6: in vivo adjuvant activity, vaccine c (Peptide SEQ ID No. 6), IFNγ ELISPOT; conditions: added to vaccine c; 0.4 nmol per body, twice; FIG. 3
Description: Test 6 Evaluation of In Vivo Adjuvant Activity in HLA-A*02:01 Transgenic Mouse
The in vivo adjuvant activity of the compound of Example 1 was evaluated in the following procedure. To a vaccine prepared by mixing Peptide SEQ ID No. 6 prepared in Reference example 6 with Montanide ISA 51 VG (hereinafter, referred to as “vaccine c”) was added the compound prepared in Example 1 to prepare a vaccine. The vaccine was administered to a HLA-A*02:01 transgenic mouse, and the adjuvant activity of the vaccine was evaluated by the method of testing antigen-specific CTL induction. The GLYDGMEHL in Peptide SEQ ID No. 6 corresponds to an antigen peptide derived from an HLA-A*02:01-restricted MAGE-A10 protein.
The character for inducing CTLs specific to the antigen peptide (SEQ ID No. 6) by vaccine c was evaluated by measuring whether IFNγ can be produced upon stimulation of splenocytes from the mouse with the peptide. In addition, the character for exerting in vivo adjuvant activity by the compound in Example 1 was evaluated by comparing the number of CTLs induced by vaccine c and the number of CTLs induced by the vaccine prepared by adding the compound prepared in Example 1 to vaccine c, and checking presence or absence of the increase on the number.
Specifically, Peptide of SEQ ID No. 6 was dissolved in DMSO, and then diluted with water for injection to concentrations of 0.1 mg/mL. […]

[2] = tested on: HLA-A*02:01 transgenic mouse; test: Test 7: in vivo adjuvant activity, vaccine d (Peptide SEQ ID No. 5), IFNγ ELISPOT; conditions: added to vaccine d; 330 ng per body, once; FIG. 4
Description: Evaluation of In Vivo Adjuvant Activity in HLA-A*02:01 Transgenic Mouse
The in vivo adjuvant activity of the compound of Example 1 was evaluated in the following procedure. To a vaccine prepared by mixing Peptide SEQ ID No. 5 prepared in Reference example 5 with Montanide ISA 51 VG (hereinafter, referred to as “vaccine d”) was added the compound prepared in Example 1 to prepare a vaccine. The vaccine was administered to a HLA-A*02:01 transgenic mouse, and the adjuvant activity of the vaccine was evaluated by the method of testing antigen-specific CTL induction. The VLQELNVTV in Peptide SEQ ID No. 5 corresponds to an antigen peptide derived from an HLA-A*02:01-restricted Proteinase-3 protein.
The character for inducing CTLs specific to the antigen peptide (SEQ ID No. 5) by vaccine d was evaluated by measuring whether IFNγ can be produced upon stimulation of splenocytes from the mouse with the peptide. In addition, the character for exerting in vivo adjuvant activity by the compound in Example 1 was evaluated by comparing the number of CTLs induced by vaccine d and the number of CTLs induced by the vaccine prepared by adding the compound prepared in Example 1 to vaccine d, and checking presence or absence of the increase on the number.
Specifically, Peptide of SEQ ID No. 5 was dissolved in DMSO, and then diluted with water for injection to concentrations of 2 mg/mL. […]

CCCCCNc1nc(N)nc(C)c1Cc1ccc(CN(C)CCOCCOCCOCCOCCO)cc1OC [Example 1, 1-(4-{[2-amino-4-methyl-6-(pentylamino)pyrimidin-5-yl]methyl}-3-methoxyphenyl)-2-methyl-5,8,11,14-tetraoxa-2-azahexadecan-16-ol·trifluoroacetate]
CTL counts responsive to Peptide SEQ ID No. 6 compared with adding no compound [1]: more | CTL counts responsive to Peptide of SEQ ID No. 5 compared with adding no compound [2]: more
